Assay results reported in patent US20220241308A1, “NEURONAL FUNCTION MODULATING AGENT” (University of Tsukuba, priority 2019, published 2022).

Experiments:
[1] = tested on: MAPK8 (mitogen-activated protein kinase 8); assay: Gene expression experiment (real-time PCR) in SH-SY5Y cells: MAPK8; format: cell-based; settings: 24 h
Experimental: (§1) SH-SY5Y cells were seeded in 100 mm-cell dishes (BD Biocoat) at concentrations of 3.7×10^5 cells/mL (10 mL/dish) and cultured for 24 h at 37° C. and 5% CO2. Culture medium used was F12/DMEM (Gibco) supplemented with 1% non-essential amino acids (Gibco), 15% FBS (Bio West), and 1% penicillin/streptomycin (Lonza). After 24 h, the culture medium was completely removed with an aspirator, 10 mL of culture medium Opti-MEM(Gibco) was added to each dish, and the cells were cultured for 24 h at 37° C. and 5% CO2. RNA was extracted from the culture cells and analyzed for the expression of genes described below by real-time PCR (designated as “Control” in FIGS. 2 to 8).
(§2) RNA extraction was performed using ISOGEN Reagent (Nippon Gene Co., Ltd.) in accordance with the protocol recommended by Nippo n Gene Co., Ltd. (see URL: https://www.nippongene.com/siyaku/product/extraction/tds/tds_isogen-rna-dna-protein.pdf). Real-time PCR was performed according to the protocol recommended by Thermo Fisher Scientific using a reagent kit for TaqMan Real-Time PCR (Thermo Fisher Scientific) (see URL: https://assets.thermofisher.com/TFS-Assets/LSG/manuals/4304449_TaqManPCRMM_UG.pdf).
(§3) 24 h after seeding 100 mm-cell dishes (BD Biocoat) with SH-SY5Y cells, the culture medium was completely removed with an aspirator, amyloid β protein (Beta-Amyloid 1-42, AnaSpec) was mixed with Opti-MEM (Gibco) so that the final concentration was 5 μM, 10 mL of the mixture was added to each dish, the cells were cultured for 24 h at 37° C. and 5% CO2, and RNA was extracted. Except for performing the procedure described above, gene expression was analyzed as described above (designated as “Aβ” in FIGS. 2 to 8).
(§4) 24 h after seeding 100 mm-cell dishes (BD Biocoat) with SH-SY5Y cells, the culture medium was completely removed with an aspirator, Sample 1 was mixed with culture medium Opti-MEM(Gibco) so that the final concentration was 12.56 μM, 9,990 μL of the mixture was added to each dish and allowed to stand for 10 min, amyloid β protein (Beta-Amyloid 1-42, AnaSpec) was mixed with Opti-MEM (Gibco) so that the final concentration was […], 10 μL of the mixture was added to each well, the cells were cultured for 24 h at 37° C. and 5% CO2, and RNA was extracted. Except for performing the procedure described above, Gene expression was analyzed as described above (designated as “Aβ+M3,5G” in FIGS. 2 to 8).
(§5) Except that Sample 2 was used instead of Sample 1, gene expression was analyzed as described above (designated as “Aβ+M” in FIGS. 2 to 8).
Except that Sample 3 was used instead of Sample 1, gene expression was analyzed as described above (designated as “Aβ+M3G” in FIGS. 2 to 8). […]

CASP3 (caspase-3) = assay: Gene expression experiment (real-time PCR) in SH-SY5Y cells: CASP3; format: cell-based; settings: for expression of CASP3: 24 h
Experimental: as §1, §2, §3, §4, §5
Except that Sample 3 was used instead of Sample 1, gene expression was analyzed as described above (designated as “Aβ+M3G” in FIGS. 2 to 8).
24 h after seeding 100 mm-cell dishes (BD Biocoat) with SH-SY5Y cells, the culture medium was completely removed with an aspirator, 10 mL of culture medium Opti-MEM(Gibco) mixed with Sample 1 was added to each dish, the cells were cultured for 24 h at 37° C. and 5% CO2, and RNA was extracted. Except for performing the procedure described above, gene expression was analyzed as described above (designated as “M3,5G” in FIGS. 2 to 8).

[2] = 12.56 μM, amyloid β protein-treated cells, compared to “Aβ”
[3] = 12.56 μM, amyloid β protein-treated cells, compared to “Control”
[4] = Sample 1 alone, no amyloid β, compared to “Control”

COc1cc(-c2[o+]c3cc(O)cc(OC4OC(CO)C(O)C(O)C4O)c3cc2OC2OC(CO)C(O)C(O)C2O)cc(OC)c1O (stereo not shown) [M3,5G, Malvidin-3,5-diglucoside chloride]
expression of MAPK8 [1, 2]: significantly high | expression of MAPK8 [1, 3]: significantly high | expression of MAPK8 [1, 4]: significantly increased | expression of CASP3 (CASP3 (caspase-3); [2]): significantly low | expression of CASP3 (CASP3 (caspase-3); [3]): significantly low | expression of CASP3 (CASP3 (caspase-3); [4]): significantly decreased | activity in decreasing the expression of CASP3 (CASP3 (caspase-3); amyloid β protein-treated cells, 12.56 μM, ranked against malvidin and malvidin-3-glucoside): highest activity
